From patent US5972947A, “Oxazolidinone derivatives, processes for the production thereof and pharmaceutical agents containing these compounds” (Roche Diagnostics GmbH, priority 1995, dated 1999) come the findings set out here.

Broadly, the IC50 is the midpoint of a concentration-inhibition curve.

The target in the experiment is GpIIb/IIIa receptor (Homo sapiens, UniProt P05106+P08514). Description: GpIIb/IIIa fibrinogen ELISA (inhibition of the fibrinogen-GpIIb/IIIa interaction). The format is binding. Conditions: isolated activated GpIIb/IIIa receptor coated at 2 μg/ml; fibrinogen ligand, 1 hour incubation; OD at 405 nm. The procedure: Microtitre plates were coated overnight with 2 μg/ml isolated activated GpIIb/IIIa receptor. After the unbound receptor had been removed by several washing steps, the surface of the plate was blocked with 1% casein and washed again. The test substance was added at the necessary concentrations, the plates were subsequently incubated for 10 minutes while shaking in a linear shaker. The natural ligand of the GpIIb/IIIa receptor fibrinogen was added thereto. After incubating for 1 hour, unbound fibrinogen was removed by several washing steps and bound fibrinogen was determined in an ELISA reader by determining the change in optical density at 405 nm caused by a peroxidase conjugated monoclonal antibody. Inhibition of the fibrinogen-GpIIb/IIIa interaction leads to low optical densities. The IC50 value was determined by means of a concentration-effect curve.
GpIIb/IIIa receptor, sequence (P08514 32-887 limits assumed): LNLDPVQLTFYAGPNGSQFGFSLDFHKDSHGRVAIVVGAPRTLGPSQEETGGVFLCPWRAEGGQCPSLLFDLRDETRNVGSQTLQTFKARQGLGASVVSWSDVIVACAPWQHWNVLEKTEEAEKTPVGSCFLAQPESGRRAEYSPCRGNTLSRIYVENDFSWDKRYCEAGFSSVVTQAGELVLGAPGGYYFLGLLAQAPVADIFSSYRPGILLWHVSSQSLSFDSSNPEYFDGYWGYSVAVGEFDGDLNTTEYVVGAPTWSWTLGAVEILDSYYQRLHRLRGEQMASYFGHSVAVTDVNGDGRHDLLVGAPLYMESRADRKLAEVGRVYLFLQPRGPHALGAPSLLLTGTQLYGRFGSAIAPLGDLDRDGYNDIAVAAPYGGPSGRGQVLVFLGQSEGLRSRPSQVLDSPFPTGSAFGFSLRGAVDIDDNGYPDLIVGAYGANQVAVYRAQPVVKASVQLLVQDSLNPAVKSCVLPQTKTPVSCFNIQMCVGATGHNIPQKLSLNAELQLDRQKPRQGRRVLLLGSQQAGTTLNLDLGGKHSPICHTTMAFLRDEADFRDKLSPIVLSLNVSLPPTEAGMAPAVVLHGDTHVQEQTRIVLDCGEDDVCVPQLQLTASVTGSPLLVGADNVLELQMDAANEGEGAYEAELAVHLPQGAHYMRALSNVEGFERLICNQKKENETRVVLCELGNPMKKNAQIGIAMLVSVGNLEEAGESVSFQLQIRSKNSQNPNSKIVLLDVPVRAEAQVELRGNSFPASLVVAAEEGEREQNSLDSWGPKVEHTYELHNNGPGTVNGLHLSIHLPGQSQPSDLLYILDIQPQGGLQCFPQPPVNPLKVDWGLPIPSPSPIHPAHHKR
GpIIb/IIIa receptor, sequence (P08514 891-1039 partner limits assumed): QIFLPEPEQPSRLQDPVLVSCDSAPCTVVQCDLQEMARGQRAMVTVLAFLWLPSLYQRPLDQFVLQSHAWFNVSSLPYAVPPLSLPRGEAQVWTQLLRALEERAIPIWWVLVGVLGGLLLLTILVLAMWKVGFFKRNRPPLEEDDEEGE
GpIIb/IIIa receptor, sequence (P05106 27-788): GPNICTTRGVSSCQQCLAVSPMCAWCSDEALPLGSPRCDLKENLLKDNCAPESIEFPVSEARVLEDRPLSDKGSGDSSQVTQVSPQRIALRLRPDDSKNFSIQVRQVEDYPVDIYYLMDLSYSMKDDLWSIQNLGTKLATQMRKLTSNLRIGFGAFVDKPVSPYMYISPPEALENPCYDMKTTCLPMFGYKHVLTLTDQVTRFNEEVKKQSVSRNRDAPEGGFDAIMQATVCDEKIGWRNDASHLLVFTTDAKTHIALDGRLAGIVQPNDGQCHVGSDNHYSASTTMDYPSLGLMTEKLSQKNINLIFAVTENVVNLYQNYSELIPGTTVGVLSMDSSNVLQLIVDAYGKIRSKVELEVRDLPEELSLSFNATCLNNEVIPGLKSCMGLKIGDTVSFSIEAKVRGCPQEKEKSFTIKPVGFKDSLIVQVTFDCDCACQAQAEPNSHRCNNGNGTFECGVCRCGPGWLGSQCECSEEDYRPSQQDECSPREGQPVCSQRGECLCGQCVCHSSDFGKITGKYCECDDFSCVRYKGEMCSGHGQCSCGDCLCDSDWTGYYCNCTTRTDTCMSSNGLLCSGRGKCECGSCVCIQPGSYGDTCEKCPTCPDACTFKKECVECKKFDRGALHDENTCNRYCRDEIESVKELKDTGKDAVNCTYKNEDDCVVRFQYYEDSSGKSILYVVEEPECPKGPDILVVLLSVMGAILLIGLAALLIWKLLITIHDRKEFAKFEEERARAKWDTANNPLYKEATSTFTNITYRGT
The GpIIb/IIIa fibrinogen ELISA is a modification of the assay which is described in the following references:
Nachman, R. L. & Leung, L. L. K. (1982): Complex formation of platelet membrane glycoproteins IIb and IIIa with fibrinogen. J. Clin. Invest. 69: 263-269.
Wright, P. S. et al. […]; An echistatin C-terminal peptide activated GpIIb/IIIa binding to fibrinogen, fibronectin, vitronectin and collagen type I and type IV. Biochem. J. 293: 262-267.
(An ELISA detects its analyte on a solid surface through an enzyme-linked reagent.)
In turn, `O=C(O)C1CCN(CC2CN(C3CCN(c4ccncc4)CC3)C(=O)O2)CC1` (racemic) [Example 2, 1-[(rac]-2-Oxo-3-(3,4,5,6-tetrahydro-2H-[1,4']bipyridinyl-4-yl)-oxazolidin-5-ylmethyl]-piperidine-4-carboxylic acid] returned a concentration for half-maximal inhibition (IC50) of less than 300 nM. For the compound `O=C(O)C=C1CCN(CC2CN(C3CCN(c4ccncc4)CC3)C(=O)O2)CC1` (racemic) [Example 3, {1-[(rac)-2-Oxo-3-(3,4,5,6-tetrahydro-2H-[1,4']bipyridinyl-4yl)-oxazolidin-5-ylmethyl]-piperidin-4-ylidene}-acetic acid], the IC50 came out at 1400 nM. `O=C(O)C1CCN(CC2OC(=O)N(C3CCN(c4ccncc4)CC3)C2c2ccccc2)CC1` (stereo not drawn) [10 a)] gave an IC50 of 300 nM. For `O=C(O)C1CCC(O)(CC2CN(C3CCN(c4ccncc4)CC3)C(=O)O2)CC1` (stereo not drawn) [10 c)], the IC50 is less than 300 nM. The compound `O=C(O)C1CCN(C[C@H]2CN(C3CCN(c4ccncc4)CC3)C(=O)O2)CC1` [Example 1, 1-[(5S)-2-oxo-3-(3,4,5,6-tetrahydro-2H-[1,4']bipyridinyl-4-yl)-oxazolidin-5-ylmethyl]-piperidine-4-carboxylic acid] gave a half-inhibitory concentration (IC50) of less than 300 nM. The figure for `O=C(O)CC1(O)CCN(CC2CN(C3CCN(c4ccncc4)CC3)C(=O)O2)CC1` (stereo not drawn) [Example 5, {4-Hydroxy-1-[2-oxo-3-(3,4,5,6-tetrahydro-2H-[1,4']bipyridinyl-4-yl)-oxazolidin-5-ylmethyl]-piperidin-4-yl}acetic acid] is 1000 nM. The figure for `CC1C(CN2CCC(C(=O)O)CC2)OC(=O)N1C1CCN(c2ccncc2)CC1` (stereo not drawn) [Example 7, 1-[4-Methyl-2-oxo-3-(3,4,5,6-tetrahydro-2H-[1,4']bipyridinyl-4-yl)-oxazolidin-5-ylmethyl]-piperidine-4-carboxylic acid] is less than 300 nM.

Take `O=C(O)C1CCN(CC2CN(C3CCN(c4ccncn4)CC3)C(=O)O2)CC1` (stereo not drawn) [Example 8, 1-[2-Oxo-3-(1-pyrimidin-4-yl-piperidin-4-yl)-oxazolidin-5-ylmethyl]-piperidine-4-carboxylic acid]: 300 nM corresponded to half-maximal inhibition (IC50).

With `O=C(O)C1CCN(CC2CN(C3CCN(c4ccnc(NCc5ccccc5)n4)CC3)C(=O)O2)CC1` (stereo not drawn) [Example 9, 1-{3-[1-(2-Benzylamino-pyrimidin-4-yl)-piperidin-4-yl]-2-oxo-oxazolidin-5-ylmethyl}-piperidine-4-carboxylic acid], the 50% inhibitory concentration (IC50) turned out to be 70 nM. The figure for `C[C@]1(CN2CCC(C(=O)O)CC2)CN(C2CCN(c3ccncc3)CC2)C(=O)O1` [No. 78, (5S)-1-[5-Methyl-2-oxo-3-(3,4,5,6-tetrahydro-2H-[1,4']bipyridinyl-4-yl)-oxazolidin-5-ylmethyl]-piperidine-4-carboxylic acid] is 600 nM; for `O=C(O)C1CCN(CC2OC(=O)N(C3CCN(c4ccncc4)CC3)C2c2cccc(C(F)(F)F)c2)CC1` (stereo not drawn) [No. 79, 1-[2-Oxo-3-(3,4,5,6-tetrahydro-2H-[1,4']bipyridinyl-4-yl)-4-(3-trifluoromethylphenyl)-oxazolidin-5-ylmethyl]-piperidine-4-carboxylic acid] it is 1300 nM; for `O=C(O)C1CCN(CC2OC(=O)N(C3CCN(c4ccncc4)CC3)C2c2ccc(Cl)cc2)CC1` (stereo not drawn) [No. 80, 1-[4-(4-Chlorophenyl)-2-oxo-3-(3,4,5,6-tetrahydro-2H-[1,4']bipyridinyl-4-yl)-oxazolidin-5-ylmethyl]-piperidine-4-carboxylic acid] it is 500 nM.
